Values joined by “and” are separate entries in the source; they are usually repeats but may differ in a detail not shown here. Equal entries are not always repeated. Structures can show the parent of a compound that is named as a salt. Where two headings read alike, the source gives them in different places.

Results on five compounds are retold here after paper PMC8041433 (Environmental Health Perspectives, 2021).

One experiment has as its target AChE in SH-SY5Y cells (Homo sapiens, UniProt P22303). Description: cell-based.
Experiment [1] has as its target AChE in neural stem cell spheroids (Homo sapiens, UniProt P22303). In words: cell-based. The following applies: for IC50: potency (IC50).
Experiment [2] concerns the target AChE in SH-SY5Y spheroids (Homo sapiens, UniProt P22303). Description: cell-based. The following applies: potency (IC50).
Experiment [3] concerns the target AChE in neural stem cells (Homo sapiens, UniProt P22303). Description: cell-based.
Experiment [4] deals with T1, recombinant human AChE (Homo sapiens, UniProt P22303).
T1 sequence (P22303 32-614): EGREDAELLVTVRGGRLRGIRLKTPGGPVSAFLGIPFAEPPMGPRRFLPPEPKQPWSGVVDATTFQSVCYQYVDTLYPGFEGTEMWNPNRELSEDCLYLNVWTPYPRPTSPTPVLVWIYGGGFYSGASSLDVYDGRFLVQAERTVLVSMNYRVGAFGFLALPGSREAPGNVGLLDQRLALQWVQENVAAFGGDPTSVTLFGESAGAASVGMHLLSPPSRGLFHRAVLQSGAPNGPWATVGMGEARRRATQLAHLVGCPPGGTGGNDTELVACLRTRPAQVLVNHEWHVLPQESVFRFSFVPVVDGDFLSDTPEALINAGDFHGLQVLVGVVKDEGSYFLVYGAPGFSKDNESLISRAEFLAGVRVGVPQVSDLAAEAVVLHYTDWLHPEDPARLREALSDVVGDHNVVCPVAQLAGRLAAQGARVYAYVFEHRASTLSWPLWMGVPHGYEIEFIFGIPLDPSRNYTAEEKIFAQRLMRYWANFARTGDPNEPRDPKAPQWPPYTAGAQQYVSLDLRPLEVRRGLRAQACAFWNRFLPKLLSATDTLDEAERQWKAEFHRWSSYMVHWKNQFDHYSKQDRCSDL
For experiment [5], the target named is T1, recombinant human AChE. In words: biochemical. To be noted: for AC50: AC50 (uM). The format is biochemical.
The target of experiment [6] is T1, recombinant human AChE. In words: biochemical.
The target in experiment [7] is T1, recombinant human AChE. In words: biochemical. This is another data set of the same source.
Experiment [8] addresses T1, recombinant human AChE. Description: biochemical. The following applies: potency (IC50), Enzyme with microsomes.
Setting [9] is: potency (IC50), SH-SY5Y cells monolayer.
[10] abbreviates: Neural stem cell spheroid (48 h).
Where [11] appears, read: Neural stem cell spheroid (24 h).
Wherever IR or R is given: key: Reversible (R); Irreversible (IR); ND, not detected in enzyme-based AChE inhibition assay from current study.

AChE in SH-SY5Y spheroids, sequence (P22303 32-614): as above
AChE in SH-SY5Y cells, sequence (P22303 32-614): as above
AChE in neural stem cells, sequence (P22303 32-614): as above
AChE in neural stem cell spheroids, sequence (P22303 32-614): as above

With `CC(=O)Oc1cc(C(C)C)c(OCCN(C)C)cc1C` [Moxisylyte hydrochloride, reference compound], the “CC-v2 (curve classes)” value at AChE in SH-SY5Y cells was -2.1 and -1.1; on recombinant human AChE [4], -2.4; on recombinant human AChE [6] it was -2.2. The half-maximal inhibitory concentration (IC50) against AChE in SH-SY5Y cells (IC50 (uM)) worked out at 13.8 µM; on AChE in SH-SY5Y cells (setting [9]), 20.1 µM; in [1] (setting [10]), 24.3 µM; in experiment [2] (SH-SY5Y spheroids (24 h)), 14.3 µM; in [2] (SH-SY5Y spheroids (48 h)), 20.9 µM; in experiment [3] it was 19.3 µM. For the same compound, the 50% inhibitory concentration (IC50) at recombinant human AChE [6] (potency (IC50), Enzyme) was determined as 21.9 µM; on recombinant human AChE [7], 20.1 ± 1.36 µM; at recombinant human AChE [8] it was 19.3 µM. Besides, the “potency (IC50), Neural stem cell spheroid (24 h)” value in experiment [1] is “Inactive”. Further, the Efficacy at recombinant human AChE [4] is -32.666; on recombinant human AChE [6], -54.154. Besides, the “IR or R” value at recombinant human AChE [5] was “R”. The AC50 at recombinant human AChE [5] (activity_5) is 19.3 µM and 17.2 µM and 21.7 µM; at recombinant human AChE [5] (activity_10) it was 19.3 µM and 24.3 µM and 21.7 µM; at recombinant human AChE [5] (activity_60), 17.2 µM and 24.3 µM and 21.7 µM.

As for `CCN(CC)CCOc1ccc2c(c1)C(=O)c1cc(OCCN(CC)CC)ccc1-2` [Tilorone, reference compound], the “CC-v2 (curve classes)” value at AChE in SH-SY5Y cells, at recombinant human AChE [4] and on recombinant human AChE [6] was -1.1 throughout. For the same compound, the IC50 on AChE in SH-SY5Y cells (IC50 (uM)) is 0.977 µM and 1.1 µM and 0.776 µM; against AChE in SH-SY5Y cells (setting [9]), 1.77 µM; in experiment [1] (setting [11]), 19.6 µM; in [1] (setting [10]), 25.7 µM; in experiment [2] (SH-SY5Y spheroids (24 h)) it was 1.34 µM; in experiment [2] (SH-SY5Y spheroids (48 h)), 1.42 µM. Also, the IC50 in experiment [3] was determined as 5.88 µM; on recombinant human AChE [6] (potency (IC50), Enzyme), 4.18 µM; on recombinant human AChE [7] it was 5.52 ± 1.16 µM; at recombinant human AChE [8], 5.46 µM. Further, the Efficacy at recombinant human AChE [4] is -84.739; on recombinant human AChE [6], -92.014. Moreover, the “IR or R” value at recombinant human AChE [5] is given as “R”. At recombinant human AChE [5], the “reversibility of AChE inhibition (result in words)” value is reported as “reversible”. Moreover, on recombinant human AChE [5], the concentration at half-maximal activity (AC50) is 6.85 µM (2×) and 6.11 µM (2×) and 4.85 µM and 7.69 µM and 9.68 µM.

With `C=CC[N+]1([C@H]2C[C@H]3[C@@H]4CC[C@H]5C[C@H](OC(C)=O)[C@@H](N6CCCCC6)C[C@]5(C)[C@H]4CC[C@]3(C)[C@H]2OC(=O)CC)CCCCC1` [Rapacuronium bromide, reference compound], the “CC-v2 (curve classes)” value is recorded as -2.1 on AChE in SH-SY5Y cells, 4 on recombinant human AChE [4] and -2.2 at recombinant human AChE [6]. In addition, the 50% inhibitory concentration (IC50) was 27.5 µM and 30.9 µM and 34.7 µM against AChE in SH-SY5Y cells (IC50 (uM)); 16 µM at AChE in SH-SY5Y cells (setting [9]); 3.64 µM in [1] (setting [11]); 1.37 µM in experiment [1] (setting [10]); 8.24 µM in [2] (SH-SY5Y spheroids (24 h)); 22.6 µM in experiment [2] (SH-SY5Y spheroids (48 h)). Moreover, the 50% inhibitory concentration (IC50) stood at 5.27 µM in experiment [3]; 30.9 µM at recombinant human AChE [6] (IC50 (uM)); 22.6 µM on recombinant human AChE [6] (potency (IC50), Enzyme); 26.3 ± 1.71 µM at recombinant human AChE [7]; 26.3 µM at recombinant human AChE [8]. Further, the Efficacy at recombinant human AChE [4] is listed as 0; on recombinant human AChE [6] it was -53.371. In addition, on recombinant human AChE [5], the “IR or R” value was “R”. In addition, the AC50 on recombinant human AChE [5] (activity_5) is 21.7 µM and 19.3 µM; at recombinant human AChE [5] (activity_10), 13.7 µM and 21.7 µM and 19.3 µM; at recombinant human AChE [5] (activity_60) it was 21.7 µM and 38.5 µM and 19.3 µM.

On to `CCOC(=O)CC(SP(=O)(OC)OC)C(=O)OCC` (stereo not drawn) [Malaoxon], for which the “CC-v2 (curve classes)” value on AChE in SH-SY5Y cells was -1.1; at recombinant human AChE [4], -2.1; on recombinant human AChE [6], -1.1. Besides, the IC50 against AChE in SH-SY5Y cells (IC50 (uM)) is 3.56 µM and 3.02 µM and 3.17 µM and 2.83 µM; against AChE in SH-SY5Y cells (setting [9]) it was 3.05 ± 0.52 µM; in experiment [1] (setting [11]), 5.05 ± 3.3 µM; in experiment [1] (setting [10]), 9.46 µM; in experiment [2] (SH-SY5Y spheroids (24 h)), 4.09 ± 3.42 µM; in experiment [2] (SH-SY5Y spheroids (48 h)) it was 3.95 µM. The 50% inhibitory concentration (IC50) is 5.86 ± 1.05 µM in experiment [3]; 1.46 µM at recombinant human AChE [6] (potency (IC50), Enzyme); 4.62 ± 0.31 µM on recombinant human AChE [7]; 4.43 µM at recombinant human AChE [8]. Further, the concentration at half-maximal activity (AC50) at recombinant human AChE [5] is 22.2 µM (2×) and 9.93 µM and 7.89 µM and 25 µM and 8.85 µM (2×) and 5.59 µM and 11.1 µM.

`CN1CCc2cc(Cl)c(O)cc2[C@H]2c3ccccc3CC[C@@H]21` [Ecopipam, reference compound]: the results for the “CC-v2 (curve classes)” value at AChE in SH-SY5Y cells, on recombinant human AChE [4] and at recombinant human AChE [6] were -2.2, 4 and -2.2, respectively. The IC50 at AChE in SH-SY5Y cells (IC50 (uM)) is 27.5 µM and 34.7 µM; against AChE in SH-SY5Y cells (setting [9]), 15.8 µM; in experiment [1] (setting [10]) it was 3.16 µM; in experiment [2] (SH-SY5Y spheroids (48 h)) it was 17.7 µM; in experiment [3] it was 17.5 µM; at recombinant human AChE [6] (IC50 (uM)), 34.7 µM. In addition, the IC50 came out at 20.1 µM at recombinant human AChE [6] (potency (IC50), Enzyme); 32.7 ± 9.64 µM at recombinant human AChE [7]; 27.3 µM on recombinant human AChE [8]. Besides, the Efficacy is 0 at recombinant human AChE [4] and -53.005 at recombinant human AChE [6]. Besides, the “IR or R” value on recombinant human AChE [5] was “R”. The AC50 at recombinant human AChE [5] is 21.7 µM (2×) and 9.68 µM and 19.3 µM and 15.3 µM (2×) and 17.2 µM.
